In ChEMBL document CHEMBL1145498, “A systematic interaction map of validated kinase inhibitors with Ser/Thr kinases” (Proc Natl Acad Sci U S A, 2007):

Legend:
[1] = target: Calcium/calmodulin-dependent protein kinase type II subunit gamma (Homo sapiens) (UniProt Q13555)
[2] = target: T1, Calcium/calmodulin-dependent protein kinase type IV (Homo sapiens) (UniProt Q16566)
T1 sequence (whole entry): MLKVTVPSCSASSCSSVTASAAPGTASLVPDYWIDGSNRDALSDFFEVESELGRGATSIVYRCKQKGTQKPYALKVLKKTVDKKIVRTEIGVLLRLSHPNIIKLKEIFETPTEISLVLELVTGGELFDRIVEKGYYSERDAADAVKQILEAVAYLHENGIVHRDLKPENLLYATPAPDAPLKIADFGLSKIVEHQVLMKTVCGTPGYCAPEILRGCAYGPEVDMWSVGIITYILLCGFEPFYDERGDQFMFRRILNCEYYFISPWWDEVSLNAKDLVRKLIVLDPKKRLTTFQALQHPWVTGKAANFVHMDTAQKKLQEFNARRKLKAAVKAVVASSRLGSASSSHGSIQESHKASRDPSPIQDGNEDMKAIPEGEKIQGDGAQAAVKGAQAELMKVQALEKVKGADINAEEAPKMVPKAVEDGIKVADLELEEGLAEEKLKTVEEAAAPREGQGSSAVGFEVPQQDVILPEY

[3] = target: Casein kinase I isoform gamma-3 (Homo sapiens) (UniProt Q9Y6M4)
[4] = target: T2, Dual specificity mitogen-activated protein kinase kinase 6 (Homo sapiens) (UniProt P52564)
T2 sequence (whole entry): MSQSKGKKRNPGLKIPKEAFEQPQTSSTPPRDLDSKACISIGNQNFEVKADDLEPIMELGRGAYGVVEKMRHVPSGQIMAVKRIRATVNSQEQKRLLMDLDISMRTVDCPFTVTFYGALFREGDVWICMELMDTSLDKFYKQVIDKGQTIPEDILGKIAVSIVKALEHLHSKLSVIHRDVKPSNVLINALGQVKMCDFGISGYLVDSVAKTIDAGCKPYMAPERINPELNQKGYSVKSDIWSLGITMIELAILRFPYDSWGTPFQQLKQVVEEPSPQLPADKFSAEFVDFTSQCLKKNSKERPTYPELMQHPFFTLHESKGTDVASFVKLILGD

[5] = target: Mitogen-activated protein kinase 11 (Homo sapiens, UniProt Q15759)
[6] = target: Mitogen-activated protein kinase 6 (Homo sapiens) (UniProt Q16659)
[7] = target: Serine/threonine-protein kinase PAK 4 (Homo sapiens) (UniProt O96013)
[8] = target: Serine/threonine-protein kinase PAK 5 (Homo sapiens) (UniProt Q9P286)
Sequence of Serine/threonine-protein kinase PAK 5 (Homo sapiens) (Q9P286 whole entry, looked up): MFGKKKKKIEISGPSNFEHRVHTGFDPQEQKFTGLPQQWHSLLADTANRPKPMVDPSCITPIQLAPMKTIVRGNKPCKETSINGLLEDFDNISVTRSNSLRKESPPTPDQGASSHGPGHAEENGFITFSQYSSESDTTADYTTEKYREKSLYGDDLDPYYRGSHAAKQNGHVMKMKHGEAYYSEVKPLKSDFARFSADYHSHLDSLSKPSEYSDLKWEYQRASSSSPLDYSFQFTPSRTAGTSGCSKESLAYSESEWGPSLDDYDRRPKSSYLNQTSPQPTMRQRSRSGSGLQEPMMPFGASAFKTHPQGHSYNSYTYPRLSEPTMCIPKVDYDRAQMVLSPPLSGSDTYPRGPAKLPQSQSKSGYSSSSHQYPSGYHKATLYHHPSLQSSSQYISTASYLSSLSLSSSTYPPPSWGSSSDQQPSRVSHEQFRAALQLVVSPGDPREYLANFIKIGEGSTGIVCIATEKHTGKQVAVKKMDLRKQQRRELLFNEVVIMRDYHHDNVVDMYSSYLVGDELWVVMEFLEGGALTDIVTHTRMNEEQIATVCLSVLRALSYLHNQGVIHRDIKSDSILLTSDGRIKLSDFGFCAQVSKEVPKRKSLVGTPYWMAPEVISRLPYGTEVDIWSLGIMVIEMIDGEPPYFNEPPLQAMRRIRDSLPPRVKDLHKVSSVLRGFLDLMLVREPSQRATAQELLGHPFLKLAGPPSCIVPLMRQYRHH

[9] = target: Serine/threonine-protein kinase PAK 6 (Homo sapiens) (UniProt Q9NQU5)
Sequence of Serine/threonine-protein kinase PAK 6 (Homo sapiens) (Q9NQU5 whole entry, looked up): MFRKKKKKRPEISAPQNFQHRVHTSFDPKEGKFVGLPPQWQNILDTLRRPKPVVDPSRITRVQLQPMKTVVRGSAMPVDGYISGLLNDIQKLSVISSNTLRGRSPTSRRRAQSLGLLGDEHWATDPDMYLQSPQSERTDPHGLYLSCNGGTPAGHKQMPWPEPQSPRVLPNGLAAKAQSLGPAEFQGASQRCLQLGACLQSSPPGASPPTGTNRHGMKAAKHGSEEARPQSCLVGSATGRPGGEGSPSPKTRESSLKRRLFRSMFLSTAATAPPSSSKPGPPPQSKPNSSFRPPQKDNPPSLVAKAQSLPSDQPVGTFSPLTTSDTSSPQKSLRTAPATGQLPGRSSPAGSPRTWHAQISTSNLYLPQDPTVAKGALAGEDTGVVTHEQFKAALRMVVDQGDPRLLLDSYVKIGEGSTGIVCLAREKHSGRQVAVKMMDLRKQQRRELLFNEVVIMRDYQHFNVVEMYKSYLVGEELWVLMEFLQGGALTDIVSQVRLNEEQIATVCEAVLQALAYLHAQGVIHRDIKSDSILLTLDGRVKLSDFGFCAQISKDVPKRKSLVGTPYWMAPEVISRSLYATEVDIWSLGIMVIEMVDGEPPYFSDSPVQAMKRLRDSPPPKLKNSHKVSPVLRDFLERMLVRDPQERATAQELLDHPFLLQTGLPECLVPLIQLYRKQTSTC

[10] = target: Serine/threonine-protein kinase pim-3 (Homo sapiens) (UniProt Q86V86)
[11] = target: cAMP-dependent protein kinase catalytic subunit alpha (Homo sapiens) (UniProt P17612)
[12] = target: Serine/threonine-protein kinase RIO2 (Homo sapiens) (UniProt Q9BVS4)
[13] = target: Ribosomal protein S6 kinase alpha-3 (Homo sapiens) (UniProt P51812)
Sequence of Ribosomal protein S6 kinase alpha-3 (Homo sapiens) (P51812 whole entry): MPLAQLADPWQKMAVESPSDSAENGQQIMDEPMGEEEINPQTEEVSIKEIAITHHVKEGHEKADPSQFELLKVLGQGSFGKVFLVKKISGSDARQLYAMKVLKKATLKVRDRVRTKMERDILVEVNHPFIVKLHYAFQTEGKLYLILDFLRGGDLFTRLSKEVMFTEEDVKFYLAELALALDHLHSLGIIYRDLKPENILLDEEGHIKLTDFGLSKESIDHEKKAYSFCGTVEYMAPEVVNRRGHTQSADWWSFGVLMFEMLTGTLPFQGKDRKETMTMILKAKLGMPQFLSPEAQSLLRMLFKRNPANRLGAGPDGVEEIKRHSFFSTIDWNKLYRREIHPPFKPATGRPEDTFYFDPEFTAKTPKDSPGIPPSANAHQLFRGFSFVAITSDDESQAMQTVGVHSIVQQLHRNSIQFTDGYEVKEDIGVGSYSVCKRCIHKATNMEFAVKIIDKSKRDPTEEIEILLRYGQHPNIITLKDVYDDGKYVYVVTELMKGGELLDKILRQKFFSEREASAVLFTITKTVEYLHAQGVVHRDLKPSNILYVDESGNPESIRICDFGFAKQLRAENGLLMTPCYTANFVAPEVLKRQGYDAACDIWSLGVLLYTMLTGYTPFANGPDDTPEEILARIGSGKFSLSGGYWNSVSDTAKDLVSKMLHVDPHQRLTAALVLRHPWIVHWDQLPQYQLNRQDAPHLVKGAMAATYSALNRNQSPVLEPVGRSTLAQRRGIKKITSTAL

[14] = target: Serine/threonine-protein kinase 10 (Homo sapiens) (UniProt O94804)
Sequence of Serine/threonine-protein kinase 10 (Homo sapiens) (O94804 whole entry, looked up): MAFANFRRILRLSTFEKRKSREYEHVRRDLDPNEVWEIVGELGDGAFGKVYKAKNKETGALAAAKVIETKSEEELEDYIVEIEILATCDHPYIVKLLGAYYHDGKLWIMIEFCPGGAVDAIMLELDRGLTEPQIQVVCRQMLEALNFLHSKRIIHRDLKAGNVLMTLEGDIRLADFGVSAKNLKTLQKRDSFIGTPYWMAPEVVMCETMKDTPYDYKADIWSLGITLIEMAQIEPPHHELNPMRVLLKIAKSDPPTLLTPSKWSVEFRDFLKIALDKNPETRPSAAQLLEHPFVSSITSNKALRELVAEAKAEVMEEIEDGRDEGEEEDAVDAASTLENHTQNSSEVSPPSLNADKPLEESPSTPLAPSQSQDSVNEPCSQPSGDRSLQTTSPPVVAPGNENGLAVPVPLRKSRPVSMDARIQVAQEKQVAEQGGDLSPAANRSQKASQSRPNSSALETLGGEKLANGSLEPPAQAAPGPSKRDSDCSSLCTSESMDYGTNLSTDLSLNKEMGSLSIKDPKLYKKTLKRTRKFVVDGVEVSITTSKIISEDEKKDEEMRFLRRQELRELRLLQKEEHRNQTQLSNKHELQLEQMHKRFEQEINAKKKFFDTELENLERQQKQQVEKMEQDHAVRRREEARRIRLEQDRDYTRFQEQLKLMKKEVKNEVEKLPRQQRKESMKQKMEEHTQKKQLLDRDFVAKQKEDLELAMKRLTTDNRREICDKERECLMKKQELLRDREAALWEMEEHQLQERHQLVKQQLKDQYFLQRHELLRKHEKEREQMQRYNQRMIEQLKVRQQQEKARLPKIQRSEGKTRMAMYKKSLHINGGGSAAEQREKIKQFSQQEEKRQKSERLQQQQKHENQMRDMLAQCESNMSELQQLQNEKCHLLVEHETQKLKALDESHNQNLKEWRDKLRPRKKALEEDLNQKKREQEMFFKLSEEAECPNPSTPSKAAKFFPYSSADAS

[15] = target: T3, Serine/threonine-protein kinase 4 (Homo sapiens) (UniProt Q13043)
T3 sequence (whole entry): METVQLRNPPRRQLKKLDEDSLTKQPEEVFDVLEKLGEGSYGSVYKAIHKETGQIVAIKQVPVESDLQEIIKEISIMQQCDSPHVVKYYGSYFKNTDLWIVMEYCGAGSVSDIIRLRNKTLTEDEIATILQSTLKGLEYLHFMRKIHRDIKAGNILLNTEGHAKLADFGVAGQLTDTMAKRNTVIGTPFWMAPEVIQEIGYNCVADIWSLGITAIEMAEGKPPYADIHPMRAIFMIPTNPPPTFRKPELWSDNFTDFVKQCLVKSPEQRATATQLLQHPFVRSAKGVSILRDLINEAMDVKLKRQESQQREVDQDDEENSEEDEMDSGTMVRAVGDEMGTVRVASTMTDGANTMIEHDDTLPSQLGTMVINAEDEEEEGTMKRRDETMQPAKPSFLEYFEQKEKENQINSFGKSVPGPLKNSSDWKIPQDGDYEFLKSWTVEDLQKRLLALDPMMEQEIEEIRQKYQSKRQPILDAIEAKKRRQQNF

[16] = target: TRAF2 and NCK-interacting protein kinase (Homo sapiens) (UniProt Q9UKE5)
Sequence of TRAF2 and NCK-interacting protein kinase (Homo sapiens) (Q9UKE5 whole entry, looked up): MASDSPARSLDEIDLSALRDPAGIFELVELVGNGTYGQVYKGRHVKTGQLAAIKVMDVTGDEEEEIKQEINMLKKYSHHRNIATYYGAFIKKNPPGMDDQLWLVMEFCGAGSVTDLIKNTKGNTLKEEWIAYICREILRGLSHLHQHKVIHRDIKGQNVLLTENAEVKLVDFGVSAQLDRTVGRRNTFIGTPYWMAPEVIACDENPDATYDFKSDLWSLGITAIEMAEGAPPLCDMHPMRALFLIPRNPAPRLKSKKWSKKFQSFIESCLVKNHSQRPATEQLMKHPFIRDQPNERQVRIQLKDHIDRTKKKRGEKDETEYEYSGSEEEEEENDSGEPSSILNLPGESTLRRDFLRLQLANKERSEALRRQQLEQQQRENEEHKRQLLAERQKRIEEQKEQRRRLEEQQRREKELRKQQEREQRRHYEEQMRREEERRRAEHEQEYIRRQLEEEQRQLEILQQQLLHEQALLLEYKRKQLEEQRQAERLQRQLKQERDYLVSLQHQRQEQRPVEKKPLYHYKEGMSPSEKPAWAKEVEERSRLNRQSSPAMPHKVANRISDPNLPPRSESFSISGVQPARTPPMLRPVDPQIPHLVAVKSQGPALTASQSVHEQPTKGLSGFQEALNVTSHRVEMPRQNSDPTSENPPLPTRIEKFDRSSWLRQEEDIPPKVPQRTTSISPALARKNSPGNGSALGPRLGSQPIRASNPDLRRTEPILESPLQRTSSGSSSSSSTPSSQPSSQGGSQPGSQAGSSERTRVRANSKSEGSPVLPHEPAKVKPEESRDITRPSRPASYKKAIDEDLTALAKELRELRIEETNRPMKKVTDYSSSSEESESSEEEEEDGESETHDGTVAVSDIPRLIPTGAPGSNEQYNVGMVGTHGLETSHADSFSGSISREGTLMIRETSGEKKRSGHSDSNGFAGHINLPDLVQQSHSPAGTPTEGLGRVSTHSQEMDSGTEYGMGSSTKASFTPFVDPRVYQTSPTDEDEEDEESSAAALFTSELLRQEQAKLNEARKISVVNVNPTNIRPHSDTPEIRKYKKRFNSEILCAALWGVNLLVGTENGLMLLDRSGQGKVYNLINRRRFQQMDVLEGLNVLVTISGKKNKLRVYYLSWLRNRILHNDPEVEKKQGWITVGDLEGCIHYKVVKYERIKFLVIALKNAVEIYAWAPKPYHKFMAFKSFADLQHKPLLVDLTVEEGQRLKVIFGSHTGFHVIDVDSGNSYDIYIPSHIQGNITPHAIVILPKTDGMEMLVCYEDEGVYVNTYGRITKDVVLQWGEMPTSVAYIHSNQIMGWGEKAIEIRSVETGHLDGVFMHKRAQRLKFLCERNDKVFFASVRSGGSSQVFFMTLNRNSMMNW

Sequence of Calcium/calmodulin-dependent protein kinase type II subunit gamma (Homo sapiens) (Q13555 whole entry): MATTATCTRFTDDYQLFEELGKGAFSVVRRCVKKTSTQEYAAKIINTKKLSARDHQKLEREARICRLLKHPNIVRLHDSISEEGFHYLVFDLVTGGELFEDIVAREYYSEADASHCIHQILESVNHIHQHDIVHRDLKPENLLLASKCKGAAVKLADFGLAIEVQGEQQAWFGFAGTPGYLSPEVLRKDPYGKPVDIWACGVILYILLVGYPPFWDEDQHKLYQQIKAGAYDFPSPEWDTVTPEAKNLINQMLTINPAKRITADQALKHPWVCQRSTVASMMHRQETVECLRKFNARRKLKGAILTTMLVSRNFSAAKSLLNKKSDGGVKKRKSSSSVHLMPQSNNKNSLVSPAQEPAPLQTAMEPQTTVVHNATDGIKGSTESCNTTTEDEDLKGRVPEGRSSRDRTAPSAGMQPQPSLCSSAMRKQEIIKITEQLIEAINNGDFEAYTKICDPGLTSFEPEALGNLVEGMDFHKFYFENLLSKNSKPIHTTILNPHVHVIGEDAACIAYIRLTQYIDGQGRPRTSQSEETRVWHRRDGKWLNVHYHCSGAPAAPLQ

CC(C)c1nn(-c2c(Cl)cccc2Cl)c2nc(Cc3ccc(OCCO)cc3)[nH]c(=O)c12
ΔTm [1]: 0.7 °C
ΔTm [2]: -3.4 °C
ΔTm [3]: 1.3 °C
ΔTm [4]: 0.1 °C
ΔTm [5]: 0.7 °C
ΔTm [6]: 0 °C
ΔTm [7]: 2.2 °C
ΔTm [8]: 6.2 °C
ΔTm [9]: -0.1 °C
ΔTm [10]: -0.4 °C
ΔTm [11]: -0.1 °C
ΔTm [12]: 0.1 °C
ΔTm [13]: -0.9 °C
ΔTm [14]: 0.6 °C
ΔTm [15]: 0.1 °C
ΔTm [16]: 0 °C

COc1cc2c(cc1OC)-c1n[nH]c(Nc3cccc(F)c3)c1C2
ΔTm [1]: -0.1 °C
ΔTm [2]: 0.5 °C
ΔTm [3]: 0.8 °C
ΔTm [4]: 0.3 °C
ΔTm [5]: 0.1 °C
ΔTm [6]: -0.3 °C
ΔTm [7]: 0 °C
ΔTm [8]: -0.1 °C
ΔTm [9]: 0.5 °C
ΔTm [10]: 2.6 °C
ΔTm [11]: 0.9 °C
ΔTm [12]: -0.2 °C
ΔTm [13]: 2.2 °C
ΔTm [14]: 2.5 °C
ΔTm [15]: 0.7 °C
ΔTm [16]: 0.7 °C

CC(C)[C@H](CO)Nc1nc(Nc2cc(N)cc(Cl)c2)c2ncn(C(C)C)c2n1 [AMINOPURVALANOL]
ΔTm [1]: 1.3 °C
ΔTm [2]: 4.2 °C
ΔTm [3]: 1.1 °C
ΔTm [4]: 1.3 °C
ΔTm [5]: 2.8 °C
ΔTm [6]: 1.5 °C
ΔTm [7]: -0.1 °C
ΔTm [8]: 0.3 °C
ΔTm [9]: 0.1 °C
ΔTm [10]: 6.7 °C
ΔTm [11]: 6.5 °C
ΔTm [12]: 4.5 °C
ΔTm [13]: -0.1 °C
ΔTm [14]: 2.7 °C

O=C(Nc1cccc(Nc2nccc(Nc3cccc(C(F)(F)F)c3)n2)c1)C1CC1 [ANILINOPYRIMIDINE1]
ΔTm [1]: 0.2 °C
ΔTm [2]: 0.7 °C
ΔTm [3]: 2.2 °C
ΔTm [4]: 0.2 °C
ΔTm [5]: 0.8 °C
ΔTm [6]: 1.8 °C
ΔTm [7]: 1.5 °C
ΔTm [8]: 2.6 °C
ΔTm [9]: -0.9 °C
ΔTm [10]: -0.7 °C
ΔTm [11]: 1.3 °C
ΔTm [12]: 3.7 °C
ΔTm [13]: 4.8 °C
ΔTm [14]: 1 °C
ΔTm [15]: 0.9 °C
ΔTm [16]: 0.2 °C

Cc1nc(N)sc1-c1ccnc(Nc2cccc([N+](=O)[O-])c2)n1
ΔTm [1]: 1 °C
ΔTm [2]: 1.8 °C
ΔTm [3]: 1.3 °C
ΔTm [4]: 1.2 °C
ΔTm [5]: 1.2 °C
ΔTm [6]: 2.1 °C
ΔTm [7]: 1.6 °C
ΔTm [8]: 7.1 °C
ΔTm [9]: -1.1 °C
ΔTm [10]: 1.8 °C
ΔTm [11]: 4.8 °C
ΔTm [12]: 3.6 °C
ΔTm [13]: 5.9 °C
ΔTm [14]: 1.5 °C
ΔTm [15]: 3 °C
ΔTm [16]: 0.9 °C

COc1ccc(Cl)cc1NC(=O)Nc1cc(C)nc2ccccc12
ΔTm [1]: -0.5 °C
ΔTm [2]: 0.6 °C
ΔTm [3]: 0.9 °C
ΔTm [4]: -0.3 °C
ΔTm [5]: 1.4 °C
ΔTm [6]: 2.1 °C
ΔTm [7]: -0.6 °C
ΔTm [8]: 2.6 °C
ΔTm [9]: 1.9 °C
ΔTm [10]: 0.8 °C
ΔTm [11]: 4.8 °C
ΔTm [12]: 0.6 °C
ΔTm [13]: 2.2 °C
ΔTm [14]: 0.6 °C

Cc1ccc(NC2=CC(=O)c3sc(C)nc3C2=O)cc1
ΔTm [1]: -2 °C
ΔTm [2]: 3.7 °C
ΔTm [3]: -4.3 °C
ΔTm [4]: -0.2 °C
ΔTm [5]: -0.6 °C
ΔTm [6]: -0.3 °C
ΔTm [7]: -0.7 °C
ΔTm [8]: 0.4 °C
ΔTm [9]: -2.1 °C
ΔTm [10]: -0.4 °C
ΔTm [11]: -0.4 °C
ΔTm [12]: 0.6 °C
ΔTm [13]: -0.5 °C
ΔTm [14]: -0.7 °C
ΔTm [15]: -1.3 °C
ΔTm [16]: -1.4 °C
